From US9932325B2 (Denali Therapeutics Inc., priority 2015, dated 2018)

What follows are molecules tested against LRRK2 G2019S enzyme (Homo sapiens (Human), UniProt Q5S007, G2019S) (assay: LRRK2 G2019S TR-FRET biochemical assay (LRRKtide substrate)). Conditions: 134 μM ATP.
Method: Detection Reaction Conditions • 1× TR-FRET dilution buffer • 10 mM EDTA • 2 nM antibody • 23° C. reaction temperature • 10 μL total reaction volume
Compounds were prepared by initially diluting to 1 mM with DMSO. 35 μL of reference compound solution, 35 μL of test compound solution, and 35 μL HPE were successively added to the source plate (384-well assay plate, Labcyte). The plates were centrifuged at 2500 rpm for 1 minute and sealed in foil. […] The assay plate was centrifuged at 2500 rpm for 1 minute, and sealed with foil.
To perform the enzyme reaction, 5 μL of LRRKtide substrate and kinase mixture in assay buffer was added to all wells of the assay plate. The plate was centrifuged to concentrate the mixture at the bottom of the wells. The assay plate was incubated at 23° C. for 20 minutes. Following incubation, 5 μL of 2× ATP in assay buffer was added to each well, and plates were centrifuged to concentrate the mixture at the bottom of the wells. The plate was incubated at 23° C. for 60 minutes.
To perform the detection of the reaction, EDTA completely mixed in TR-FRET dilution buffer was added to antibody reagent. 10 μL of detection reagent was added to all wells of each well of the assay plate and the plate was centrifuged to concentrate the mixture at the bottom of the wells. The plate was then incubated at 23° C. for 60 minutes.

Sequence of LRRK2 G2019S enzyme (Q5S007 whole entry G2019S): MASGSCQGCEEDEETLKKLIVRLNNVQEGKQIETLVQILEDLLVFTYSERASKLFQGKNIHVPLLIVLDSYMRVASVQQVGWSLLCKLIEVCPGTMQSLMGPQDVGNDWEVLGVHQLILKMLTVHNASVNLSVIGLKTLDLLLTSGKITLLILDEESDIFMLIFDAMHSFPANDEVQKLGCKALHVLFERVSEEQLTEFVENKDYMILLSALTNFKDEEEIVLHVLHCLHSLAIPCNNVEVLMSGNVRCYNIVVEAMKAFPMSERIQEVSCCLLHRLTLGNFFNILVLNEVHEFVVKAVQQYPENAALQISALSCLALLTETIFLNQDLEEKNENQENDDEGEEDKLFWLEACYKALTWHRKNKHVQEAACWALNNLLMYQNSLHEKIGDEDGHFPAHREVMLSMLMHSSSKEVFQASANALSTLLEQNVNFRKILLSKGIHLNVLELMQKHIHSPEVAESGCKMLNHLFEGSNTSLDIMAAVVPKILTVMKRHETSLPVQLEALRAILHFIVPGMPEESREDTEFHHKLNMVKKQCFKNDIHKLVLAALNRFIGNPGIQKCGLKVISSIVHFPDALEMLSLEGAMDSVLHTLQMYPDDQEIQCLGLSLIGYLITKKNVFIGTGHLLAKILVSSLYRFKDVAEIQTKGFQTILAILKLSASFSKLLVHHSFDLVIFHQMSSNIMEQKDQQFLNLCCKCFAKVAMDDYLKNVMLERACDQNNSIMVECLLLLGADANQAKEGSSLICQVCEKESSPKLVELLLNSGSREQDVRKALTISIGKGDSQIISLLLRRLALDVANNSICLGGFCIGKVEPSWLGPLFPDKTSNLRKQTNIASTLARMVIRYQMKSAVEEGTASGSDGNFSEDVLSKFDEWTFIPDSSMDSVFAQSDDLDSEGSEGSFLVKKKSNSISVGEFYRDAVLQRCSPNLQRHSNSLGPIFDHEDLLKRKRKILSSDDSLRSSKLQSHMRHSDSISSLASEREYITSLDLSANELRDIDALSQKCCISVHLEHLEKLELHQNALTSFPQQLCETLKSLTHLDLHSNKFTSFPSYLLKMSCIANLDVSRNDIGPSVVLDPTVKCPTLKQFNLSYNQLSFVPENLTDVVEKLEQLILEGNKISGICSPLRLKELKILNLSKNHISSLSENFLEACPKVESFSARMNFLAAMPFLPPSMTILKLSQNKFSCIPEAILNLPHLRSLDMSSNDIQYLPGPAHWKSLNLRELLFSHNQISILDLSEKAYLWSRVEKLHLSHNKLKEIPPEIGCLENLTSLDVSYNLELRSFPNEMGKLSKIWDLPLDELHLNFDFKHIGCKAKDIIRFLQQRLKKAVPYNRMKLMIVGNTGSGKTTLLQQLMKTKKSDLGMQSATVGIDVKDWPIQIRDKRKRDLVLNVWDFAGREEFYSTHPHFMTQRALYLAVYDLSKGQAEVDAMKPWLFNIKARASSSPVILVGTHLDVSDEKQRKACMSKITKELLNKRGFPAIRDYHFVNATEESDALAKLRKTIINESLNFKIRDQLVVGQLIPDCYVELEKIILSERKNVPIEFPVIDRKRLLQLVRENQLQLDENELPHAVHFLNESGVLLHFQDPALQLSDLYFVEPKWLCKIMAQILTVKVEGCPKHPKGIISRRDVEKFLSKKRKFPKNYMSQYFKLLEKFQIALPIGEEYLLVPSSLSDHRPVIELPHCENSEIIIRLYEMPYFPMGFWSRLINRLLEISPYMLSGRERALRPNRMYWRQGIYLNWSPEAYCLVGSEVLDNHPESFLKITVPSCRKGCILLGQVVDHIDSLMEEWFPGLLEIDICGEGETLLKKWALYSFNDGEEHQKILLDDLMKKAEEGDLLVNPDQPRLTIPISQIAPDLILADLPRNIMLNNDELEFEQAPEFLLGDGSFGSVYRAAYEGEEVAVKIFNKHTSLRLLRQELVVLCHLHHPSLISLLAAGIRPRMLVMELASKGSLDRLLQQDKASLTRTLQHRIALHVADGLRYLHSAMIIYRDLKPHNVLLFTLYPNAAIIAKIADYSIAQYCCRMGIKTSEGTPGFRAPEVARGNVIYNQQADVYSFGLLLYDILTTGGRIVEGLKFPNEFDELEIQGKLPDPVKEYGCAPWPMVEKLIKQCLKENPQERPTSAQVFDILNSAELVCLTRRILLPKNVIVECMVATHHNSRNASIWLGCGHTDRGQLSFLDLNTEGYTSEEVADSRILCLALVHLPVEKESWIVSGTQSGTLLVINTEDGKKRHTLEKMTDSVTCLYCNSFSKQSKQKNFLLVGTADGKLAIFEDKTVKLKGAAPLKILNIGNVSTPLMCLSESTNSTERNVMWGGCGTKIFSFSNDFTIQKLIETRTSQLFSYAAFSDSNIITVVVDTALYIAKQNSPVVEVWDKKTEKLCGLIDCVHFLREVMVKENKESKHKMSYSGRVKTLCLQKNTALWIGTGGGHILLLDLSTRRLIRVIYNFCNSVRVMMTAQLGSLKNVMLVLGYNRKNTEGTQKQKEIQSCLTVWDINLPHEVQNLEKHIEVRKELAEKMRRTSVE

Structure (SMILES) | IC50
CCNc1nc(Nc2cn(C3CC3)nc2[C@H]2C[C@H](n3nccn3)C2)ncc1C(F)(F)F [Compound 196] | < 30 nM
[2H]C([2H])([2H])c1nn(C(C#N)(C([2H])([2H])[2H])C([2H])([2H])[2H])cc1Nc1ncc(C(F)(F)F)c(NCC(F)F)n1 [Compound 46] | < 30 nM
CCNc1nc(Nc2cc(N3CCCS3(=O)=O)nn2C2CC2)ncc1Br [Compound 159] | < 30 nM
CCNc1nc(Nc2cc([C@H]3C[C@H]3C(N)=O)nn2C2CC2)ncc1C(F)(F)F [Compound 170] | < 30 nM
CCNc1nc(Nc2cn(C(C)(C)C#N)nc2C)ncc1Br [Compound 43] | < 30 nM
COc1nc(Nc2cnn(C3CCC3)c2C#N)ncc1Br [Compound 37] | < 30 nM
CNc1nc(Nc2cnn3c2CC2(CC2)C3)ncc1C(F)(F)F [Compound 8] | < 30 nM
CCNc1nc(Nc2cn(C(C)(C)C#N)nc2C)ncc1C(F)(F)F [Compound 87] | < 30 nM
CCNc1nc(Nc2cn(C3CC3)nc2[C@H]2C[C@@H](n3nccn3)C2)ncc1C(F)(F)F [Compound 197] | < 30 nM
CCNc1nc(Nc2cn(C3CS(=O)(=O)C3)nc2C2CC2)ncc1Br [Compound 96] | < 30 nM
CCNc1nc(Nc2cn(C3C[C@@H]3C#N)nc2C2CC2)ncc1C(F)(F)F (stereo partly shown) [Compound 107] | < 30 nM
CCNc1nc(Nc2cc(C(C)(C)S(C)(=O)=O)nn2C2CC2)ncc1Br [Compound 140] | < 30 nM
[2H]C([2H])([2H])c1nn(C(C#N)(C([2H])([2H])[2H])C([2H])([2H])[2H])cc1Nc1ncc(C(F)(F)F)c(NCC)n1 [Compound 44] | < 30 nM
CCNc1nc(Nc2cn(Cc3ccon3)nc2C2CC2)ncc1C(F)(F)F [Compound 94] | < 30 nM
CCNc1nc(Nc2cnn(C3CCCN(CC(F)F)C3)c2C)ncc1C(F)(F)F (single isomer, unassigned) [Compound 116] | < 30 nM
[2H]C([2H])([2H])c1nn(C(C#N)(C([2H])([2H])[2H])C([2H])([2H])[2H])cc1Nc1ncc(C(F)(F)F)c(NC([2H])([2H])C([2H])([2H])[2H])n1 [Compound 74] | < 30 nM
CCNc1nc(Nc2cc([C@H]3C[C@H]3C(=O)OCC)nn2C2CC2)ncc1C(F)(F)F [Compound 169] | < 30 nM
CNc1nc(Nc2cn(C3CC4CCC(C3)N4C)nc2C)ncc1C(F)(F)F (stereo not shown) [Compound 2] | > 60 nM
CCNc1nc(Nc2cc(C(C)=O)nn2C2CC2)ncc1C(F)(F)F [Compound 135] | > 60 nM
[2H]C([2H])([2H])C([2H])([2H])Nc1nc(Nc2cn(C(C)(C)C#N)nc2C)ncc1C(F)(F)F [Compound 89] | < 30 nM
CCNc1nc(Nc2cn([C@H]3C[C@@H](C#N)C3)nc2C)ncc1C(F)(F)F [Compound 35B] | < 30 nM
CCNc1nc(Nc2cc(N3CCCS3(=O)=O)nn2C2CC2)ncc1C(F)(F)F [Compound 154] | < 30 nM
CCN1CCC(F)(F)C(n2ncc(Nc3ncc(C(F)(F)F)c(NC)n3)c2Cl)C1 (single isomer, unassigned) [Compound 202] | < 30 nM

Structure (SMILES) | IC50
CCNc1nc(Nc2cc(C(C)(C)S(C)(=O)=O)nn2C2CC2)ncc1C(F)(F)F [Compound 139] | < 30 nM
Cc1nn(C(C)(C)C#N)cc1Nc1ncc(C(F)(F)F)c(NC(CF)CF)n1 [Compound 76] | < 30 nM
CCNc1nc(Nc2cn(C3C[C@@H]3C#N)nc2Cl)ncc1C(F)(F)F (single isomer, unassigned) [Compound 206] | < 30 nM
CNc1nc(Nc2cnn(C3CN(C4COC4)CCC3(F)F)c2Cl)ncc1C(F)(F)F (single isomer, unassigned) [Compound 28] | < 30 nM
Cc1nn(C(C)(C)C#N)cc1Nc1nc2c(c(C3CC3)n1)C1(CC1)CN2 [Compound 19] | < 30 nM
CNc1nc(Nc2cn(C(C)(C)c3ccn(C)n3)nc2C)ncc1C(F)(F)F [Compound 15] | < 30 nM
[2H]C([2H])([2H])n1nc(C(C)(C)n2cccn2)cc1Nc1ncc(C(F)(F)F)c(NCC)n1 [Compound 70] | < 30 nM
COc1nc(Nc2cn(C3(C)CCOC3=O)nc2C)ncc1Br (single isomer, unassigned) [Compound 90] | < 30 nM
CCNc1nc(Nc2cc(C(C)(C)n3nccn3)nn2C(C)C)ncc1C(F)(F)F [Compound 86] | < 30 nM
CCNc1nc(Nc2cc(C(C)n3nccn3)nn2C2CC2)ncc1C(F)(F)F (stereo not shown) [Compound 137] | < 30 nM
CNc1nc(Nc2cnn(C3C[C@@H]4[C@H](C3)C4(F)F)c2C)ncc1C(F)(F)F (stereo partly shown) [Compound 11] | < 30 nM
CCNc1nc(Nc2cnn(C3CN(CC)CCC3(F)F)c2Cl)ncc1C(F)(F)F (single isomer, unassigned) [Compound 204] | < 30 nM
CNc1nc(Nc2cc([C@@]34C[C@@H]3COC4=O)nn2C2CC2)ncc1C(F)(F)F [Compound 163] | < 30 nM
[2H]C([2H])([2H])N1CCC(n2cc(Nc3ncc(C(F)(F)F)c(NCC)n3)c(C)n2)(C([2H])([2H])[2H])C1=O (stereo not shown) [Compound 22] | < 30 nM
Cc1nn(C(C)(C)C#N)cc1Nc1ncc(Br)c(NCC(F)F)n1 [Compound 73] | < 30 nM
CCNc1nc(Nc2cn(C3(C)CCOC3=O)nc2C)ncc1C(F)(F)F (single isomer, unassigned) [Compound 125] | < 30 nM
[2H]C([2H])([2H])n1nc(C2(C)CCCO2)cc1Nc1ncc(C(F)(F)F)c(NCC)n1 (stereo not shown) [Compound 186] | < 30 nM
CCNc1nc(Nc2cnn3c2CC(n2ccnn2)C3)ncc1C(F)(F)F (stereo not shown) [Compound 61] | < 30 nM
Cc1nn(C(C)(C)C#N)cc1Nc1ncc(Cl)c(OC2CC2)n1 [Compound 60] | < 30 nM
CNc1nc(Nc2cn(C3C[C@@H]4[C@H](C3)C4(F)F)nc2C)ncc1C(F)(F)F (stereo partly shown) [Compound 12] | < 30 nM
[2H]C([2H])([2H])n1nc(C(C)(C)c2ncco2)cc1Nc1ncc(C(F)(F)F)c(NCC)n1 [Compound 82] | < 30 nM
CCNc1nc(Nc2cnn(C3CC(N4CCN(CC(F)F)CC4)C3)c2C)ncc1C(F)(F)F (stereo not shown) [Compound 121] | < 30 nM
CNc1nc(Nc2cn(C3C[C@@H]3C#N)nc2C2CC2)ncc1C(F)(F)F (single isomer, unassigned) [Compound 208] | < 30 nM

Structure (SMILES) | IC50
CCNc1nc(Nc2cnn3c2CC2(COC2)C3)ncc1C(F)(F)F [Compound 20] | < 30 nM
CCNc1nc(Nc2cn(S(C)(=O)=O)nc2C2CC2)ncc1C(F)(F)F [Compound 112] | < 30 nM
CCNc1nc(Nc2cc(C(C)n3nccn3)nn2C2CC2)ncc1Br (stereo not shown) [Compound 146] | < 30 nM
CNc1nc(Nc2cn(C3(C)CCOC3=O)nc2Cl)ncc1C(F)(F)F (single isomer, unassigned) [Compound 123] | < 30 nM
[2H]C([2H])([2H])n1nc(C(C)(C)n2nccn2)cc1Nc1ncc(Br)c(NCC)n1 [Compound 75] | < 30 nM
CCNc1nc(Nc2cc(C(=O)N(C)C)nn2C2CC2)ncc1C(F)(F)F [Compound 130] | < 30 nM
CNc1nc(Nc2cnn(C3CC4CCC(C3)N4C)c2C)ncc1C(F)(F)F (stereo not shown) [Compound 1] | < 30 nM
CCNc1nc(Nc2cc(C3(C)CCn4ncnc43)nn2C2CC2)ncc1C(F)(F)F (stereo not shown) [Compound 171] | > 60 nM
CCNc1nc(Nc2ccnn2[C@H]2C[C@H](O)C2)ncc1C(F)(F)F [Compound 180] | 30 to 60 nM
CCNc1nc(Nc2cc(C(C)(C)n3nccn3)nn2CC)ncc1C(F)(F)F [Compound 129] | < 30 nM
CCNc1nc(Nc2ccnn2[C@H]2C[C@H](C#N)C2)ncc1C(F)(F)F [Compound 181, (1R,3R)-3-(5-((4-(ethylamino)-5-(trifluoromethyl)pyrimidin-2-yl)amino)-1H-pyrazol-1-yl)cyclobutanecarbonitrile] | < 30 nM
CNc1nc(Nc2cn(C3CC3)nc2[C@H]2C[C@@H](n3nccn3)C2)ncc1C(F)(F)F [Compound 199] | 30 to 60 nM
Cc1c(Nc2ncc(C(F)(F)F)c(NC3CC3)n2)cnn1[C@H]1C[C@H](C#N)C1 [Compound 21] | < 30 nM
CNc1nc(Nc2cn(C3(C)CCOC3=O)nc2C)ncc1C(F)(F)F (single isomer, unassigned) [Compound 124] | < 30 nM
CCNc1nc(Nc2cnn3c2CC(n2nccn2)C3)ncc1C(F)(F)F (single isomer, unassigned) [Compound 54B] | < 30 nM
[2H]C([2H])([2H])n1nc(C(C)(C)n2nccn2)cc1Nc1ncc(Br)c(OC2CC2)n1 [Compound 81] | < 30 nM
CCNc1nc(Nc2cc([C@@]34C[C@@H]3COC4=O)nn2C2CC2)ncc1C(F)(F)F [Compound 162, (1R,5S)-1-[1-cyclopropyl-5-[[4-(ethylamino)-5-(trifluoromethyl)pyrimidin-2-yl]amino]pyrazol-3-yl]-3-oxabicyclo[3.1.0]hexan-2-one] | < 30 nM
CCNc1nc(Nc2cn(C3(C)CCOC3=O)nc2C2CC2)ncc1C(F)(F)F (stereo not shown) [Compound 108] | < 30 nM
CCNc1nc(Nc2ccnn2[C@H]2C[C@H](n3nccn3)C2)ncc1C(F)(F)F [Compound 182, N2-(1-((1R,3R)-3-(2H-1,2,3-triazol-2-yl)cyclobutyl)-1H-pyrazol-5-yl)-N4-ethyl-5-(trifluoromethyl)pyrimidine-2,4-diamine] | < 30 nM
CNc1nc(Nc2cn(C3C[C@@H]4C[C@@H]4C3)nc2C)ncc1C(F)(F)F (stereo partly shown) [Compound 3] | < 30 nM
CNc1nc(Nc2c[nH]nc2C)ncc1C(F)(F)F [Compound 109] | < 30 nM
